From patent publication US20230219986A1, “NOVEL AMINOPYRIMIDINE EGFR INHIBITOR” (QILU PHARMACEUTICAL CO., LTD., priority 2020, published 2023)
Marks after values point to notes of the source that are not given here.

Assays:
wild-type EGFR = molecular target: T1, wild-type EGFR (Homo sapiens, UniProt P00533); assay: Enzymology experiment in vitro (HTRF/FRET kinase activity), wild-type EGFR; format: biochemical; settings: HTRF KinEASE-TK, read-out: EGFR (WT) IC50
T1 construct: purchased Signalchem
T1 sequence (P00533 25-1210): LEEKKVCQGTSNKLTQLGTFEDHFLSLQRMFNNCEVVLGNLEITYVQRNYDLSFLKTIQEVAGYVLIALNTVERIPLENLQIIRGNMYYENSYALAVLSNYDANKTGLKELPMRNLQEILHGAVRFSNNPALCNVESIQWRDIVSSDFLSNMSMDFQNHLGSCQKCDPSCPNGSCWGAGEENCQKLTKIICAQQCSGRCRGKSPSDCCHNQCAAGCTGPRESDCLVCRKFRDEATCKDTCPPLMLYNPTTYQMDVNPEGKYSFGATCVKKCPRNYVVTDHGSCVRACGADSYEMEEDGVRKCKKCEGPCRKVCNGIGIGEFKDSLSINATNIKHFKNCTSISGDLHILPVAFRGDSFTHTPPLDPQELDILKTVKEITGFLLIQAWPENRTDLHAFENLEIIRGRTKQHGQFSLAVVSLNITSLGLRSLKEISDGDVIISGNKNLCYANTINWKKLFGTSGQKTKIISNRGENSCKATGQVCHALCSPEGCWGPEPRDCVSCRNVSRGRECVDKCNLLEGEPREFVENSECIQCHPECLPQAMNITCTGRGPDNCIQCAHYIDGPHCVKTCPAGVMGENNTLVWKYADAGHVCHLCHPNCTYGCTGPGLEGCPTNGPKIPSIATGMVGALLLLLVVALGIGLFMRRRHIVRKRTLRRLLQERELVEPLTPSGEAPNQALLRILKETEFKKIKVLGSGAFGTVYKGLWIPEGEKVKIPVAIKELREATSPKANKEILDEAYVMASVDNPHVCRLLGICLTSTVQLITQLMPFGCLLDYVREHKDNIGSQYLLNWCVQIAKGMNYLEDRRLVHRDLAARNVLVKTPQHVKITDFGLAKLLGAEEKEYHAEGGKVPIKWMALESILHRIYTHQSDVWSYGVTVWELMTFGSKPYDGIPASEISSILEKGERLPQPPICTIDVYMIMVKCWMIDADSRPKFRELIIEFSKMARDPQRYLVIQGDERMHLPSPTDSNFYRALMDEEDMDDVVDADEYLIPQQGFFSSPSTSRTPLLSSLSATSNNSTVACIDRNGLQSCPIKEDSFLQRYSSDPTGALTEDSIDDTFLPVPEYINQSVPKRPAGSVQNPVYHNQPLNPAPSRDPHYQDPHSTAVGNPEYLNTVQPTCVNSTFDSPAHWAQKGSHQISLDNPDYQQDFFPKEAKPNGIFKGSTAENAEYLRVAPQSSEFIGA
Summary of the method: (§1)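 HTRF KinEASE-TK format: EGFR enzyme preincubated with compound 10 min at room temperature, then peptide substrate plus ATP added for 40 min. Detection with EDTA, XL665-streptavidin and Eu³⁺-labeled antibody for 1 h.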

[1] = molecular target: Ba/F3 De119/T790M/C797S EGFR triple mutant cell line (Homo sapiens, UniProt P00533, T790M/C797S, cells depend on it, form not given); assay: Cell proliferation inhibition experiment (CellTiter-Glo), Ba/F3 De119/T790M/C797S; format: cell-based; settings: Ba/F3 Del19/T790M/C797S EGFR triple mutant cells, 72 hours, Cell Titer-Glo; read-out: Ba/F3 (Del19/T790M/C797S) IC50
Ba/F3 De119/T790M/C797S EGFR triple mutant cell line, sequence (P00533 with tags, fused parts or gaps DEL746-750/T790M/C797S, form open): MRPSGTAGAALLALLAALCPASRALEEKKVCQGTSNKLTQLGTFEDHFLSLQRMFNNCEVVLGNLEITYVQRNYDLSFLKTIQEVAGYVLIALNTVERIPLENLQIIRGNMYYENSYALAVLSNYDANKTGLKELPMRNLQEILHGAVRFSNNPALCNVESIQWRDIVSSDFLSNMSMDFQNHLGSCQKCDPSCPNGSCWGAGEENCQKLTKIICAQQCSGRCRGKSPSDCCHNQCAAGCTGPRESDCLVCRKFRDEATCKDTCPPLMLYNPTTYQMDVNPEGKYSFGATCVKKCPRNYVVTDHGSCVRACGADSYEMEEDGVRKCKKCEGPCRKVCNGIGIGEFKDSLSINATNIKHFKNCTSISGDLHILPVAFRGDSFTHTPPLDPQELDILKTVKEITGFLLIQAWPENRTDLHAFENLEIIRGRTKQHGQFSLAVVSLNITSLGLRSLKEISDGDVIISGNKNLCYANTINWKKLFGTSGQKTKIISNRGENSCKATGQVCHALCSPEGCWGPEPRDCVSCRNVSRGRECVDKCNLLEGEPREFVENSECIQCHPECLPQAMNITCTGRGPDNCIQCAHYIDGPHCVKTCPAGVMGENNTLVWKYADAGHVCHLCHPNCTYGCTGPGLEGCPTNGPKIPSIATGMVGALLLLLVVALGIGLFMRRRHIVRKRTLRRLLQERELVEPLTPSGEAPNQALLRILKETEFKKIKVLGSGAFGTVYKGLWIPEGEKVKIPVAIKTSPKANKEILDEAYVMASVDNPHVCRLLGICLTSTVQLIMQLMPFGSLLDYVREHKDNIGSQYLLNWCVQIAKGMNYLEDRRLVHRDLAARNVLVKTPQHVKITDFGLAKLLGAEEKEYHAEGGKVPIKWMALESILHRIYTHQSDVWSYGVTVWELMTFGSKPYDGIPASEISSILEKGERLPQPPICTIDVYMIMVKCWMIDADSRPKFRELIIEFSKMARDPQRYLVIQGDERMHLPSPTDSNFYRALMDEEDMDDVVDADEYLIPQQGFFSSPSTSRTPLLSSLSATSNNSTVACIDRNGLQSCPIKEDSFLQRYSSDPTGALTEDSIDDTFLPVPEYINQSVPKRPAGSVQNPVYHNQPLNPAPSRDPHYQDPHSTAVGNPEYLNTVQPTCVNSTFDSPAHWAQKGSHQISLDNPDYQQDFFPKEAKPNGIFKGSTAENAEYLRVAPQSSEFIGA

[2] = tested on: EGFR wild-type cell line A431; assay: Cell proliferation inhibition experiment (CellTiter-Glo), A431; format: cell-based; settings: Homo sapiens, A-431, 72 h, A431 cells, Cell Titer-Glo, read-out: A431 EGFR WT IC50
Summary of the method: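 A431 cells, 800 per well, were cultured 24 h and then exposed to serially diluted compound (0.1% DMSO final) for 72 h at 37° C., 5% CO2.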

[3] = molecular target: T2, L858R/T790M/C797S triple mutant EGFR (Homo sapiens, UniProt P00533, C797S/L858R/T790M); assay: Enzymology experiment in vitro (HTRF/FRET kinase activity), L858R/T790M/C797S triple mutant EGFR; format: biochemical; settings: HTRF KinEASE-TK, read-out: EGFR (L858R/T790M/C797S) IC50
T2 construct: purchased Signalchem
T2 sequence (P00533 25-1210 T790M/C797S/L858R): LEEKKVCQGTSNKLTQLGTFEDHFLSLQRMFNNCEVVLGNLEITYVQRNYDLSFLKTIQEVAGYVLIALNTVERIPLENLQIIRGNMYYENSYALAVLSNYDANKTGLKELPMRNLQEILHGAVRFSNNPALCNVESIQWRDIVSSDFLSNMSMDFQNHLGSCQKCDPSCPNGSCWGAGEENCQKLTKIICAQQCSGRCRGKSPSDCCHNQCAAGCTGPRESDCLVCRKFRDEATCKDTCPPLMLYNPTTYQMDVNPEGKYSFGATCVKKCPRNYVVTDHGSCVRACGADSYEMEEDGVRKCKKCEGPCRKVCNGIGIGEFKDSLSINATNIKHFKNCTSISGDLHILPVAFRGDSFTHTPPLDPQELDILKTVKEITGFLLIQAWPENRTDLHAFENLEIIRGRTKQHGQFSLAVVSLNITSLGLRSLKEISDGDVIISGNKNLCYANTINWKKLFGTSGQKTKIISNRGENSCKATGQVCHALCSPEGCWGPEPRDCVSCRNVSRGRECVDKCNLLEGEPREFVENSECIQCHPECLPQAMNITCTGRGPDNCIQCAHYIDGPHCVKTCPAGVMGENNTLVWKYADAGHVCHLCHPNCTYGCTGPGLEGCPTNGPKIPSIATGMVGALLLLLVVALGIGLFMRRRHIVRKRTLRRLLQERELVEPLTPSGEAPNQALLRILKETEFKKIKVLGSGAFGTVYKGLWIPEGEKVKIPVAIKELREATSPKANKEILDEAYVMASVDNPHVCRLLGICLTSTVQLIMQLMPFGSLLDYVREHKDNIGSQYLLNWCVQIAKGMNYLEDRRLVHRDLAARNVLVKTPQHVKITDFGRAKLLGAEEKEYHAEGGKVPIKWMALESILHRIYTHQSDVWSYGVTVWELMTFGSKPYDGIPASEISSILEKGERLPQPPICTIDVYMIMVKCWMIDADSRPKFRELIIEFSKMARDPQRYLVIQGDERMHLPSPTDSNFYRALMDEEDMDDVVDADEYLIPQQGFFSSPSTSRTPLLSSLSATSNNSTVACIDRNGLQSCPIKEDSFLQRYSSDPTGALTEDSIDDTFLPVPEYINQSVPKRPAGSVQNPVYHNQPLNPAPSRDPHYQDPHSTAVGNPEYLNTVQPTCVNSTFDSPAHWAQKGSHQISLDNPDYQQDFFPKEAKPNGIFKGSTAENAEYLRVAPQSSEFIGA
Summary of the method: as §1

[4] = molecular target: Ba/F3 L858R/T790M/C797S EGFR triple mutant cell line (Homo sapiens, UniProt P00533, T790M/C797S/L858R, cells depend on it); assay: Cell proliferation inhibition experiment (CellTiter-Glo), Ba/F3 L858R/T790M/C797S; format: cell-based; settings: 72 hours, Cell Titer-Glo, read-out: Ba/F3 (L858R/T790M/C797S) IC50
Ba/F3 L858R/T790M/C797S EGFR triple mutant cell line, sequence (P00533 whole entry T790M/C797S/L858R): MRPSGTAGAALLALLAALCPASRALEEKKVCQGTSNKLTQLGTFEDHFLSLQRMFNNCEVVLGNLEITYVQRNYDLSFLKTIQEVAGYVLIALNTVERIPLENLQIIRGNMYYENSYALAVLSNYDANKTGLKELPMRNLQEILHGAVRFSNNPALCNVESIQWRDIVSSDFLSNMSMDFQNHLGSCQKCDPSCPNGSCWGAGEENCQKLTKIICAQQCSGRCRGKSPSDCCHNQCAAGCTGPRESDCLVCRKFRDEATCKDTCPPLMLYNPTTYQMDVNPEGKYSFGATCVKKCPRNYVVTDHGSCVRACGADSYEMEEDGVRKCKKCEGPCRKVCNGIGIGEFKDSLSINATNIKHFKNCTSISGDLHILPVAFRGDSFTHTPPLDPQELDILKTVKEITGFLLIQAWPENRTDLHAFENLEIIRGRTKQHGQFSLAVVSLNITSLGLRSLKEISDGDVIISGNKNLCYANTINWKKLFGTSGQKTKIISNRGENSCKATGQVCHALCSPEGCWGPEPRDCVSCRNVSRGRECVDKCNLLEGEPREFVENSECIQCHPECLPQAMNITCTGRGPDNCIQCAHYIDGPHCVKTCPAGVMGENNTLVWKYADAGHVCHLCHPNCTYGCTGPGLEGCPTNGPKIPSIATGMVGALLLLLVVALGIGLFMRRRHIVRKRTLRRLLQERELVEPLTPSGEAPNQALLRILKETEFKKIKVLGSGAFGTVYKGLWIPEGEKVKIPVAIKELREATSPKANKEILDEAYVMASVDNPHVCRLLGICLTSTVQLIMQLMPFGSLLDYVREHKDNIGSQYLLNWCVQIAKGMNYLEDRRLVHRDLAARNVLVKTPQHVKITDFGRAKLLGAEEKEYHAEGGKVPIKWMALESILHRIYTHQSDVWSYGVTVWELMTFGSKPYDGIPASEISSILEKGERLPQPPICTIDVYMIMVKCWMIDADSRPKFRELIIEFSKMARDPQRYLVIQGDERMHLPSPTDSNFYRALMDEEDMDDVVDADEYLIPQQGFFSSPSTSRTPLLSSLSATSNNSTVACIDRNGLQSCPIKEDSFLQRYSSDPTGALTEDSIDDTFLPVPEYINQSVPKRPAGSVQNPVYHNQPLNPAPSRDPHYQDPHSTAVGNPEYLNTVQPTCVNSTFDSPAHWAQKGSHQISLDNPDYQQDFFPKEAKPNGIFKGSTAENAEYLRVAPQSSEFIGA

[5] = tested on: PC9 (De119/T790M/C797S) nude mice xenograft model; assay: In vivo efficacy research experiment A (compound 242); set-up: species or system BALB/c-nu mice; settings: for Tumor volume (mm^3): mean ± standard error
Experimental: To evaluate the antitumor activity and toxic side effects of compound 242 orally administered for 21 days in PC9 (De119/T790M/C797S) nude mice xenograft model.
(§2) BALB/c-nu mice, female, SPF grade, purchased from Beijing Vital River Laboratory Animal Technology Co., Ltd.
(§3) PC9 (De119/T790M/C797S) cells, constructed by Qilu Pharmaceutical Co., Ltd.
(§4) PC9 (De119/T790M/C797S) cells were cultured in RPMI 1640 medium containing 10% FBS at 37° C. in a 5% carbon dioxide incubator; cells in exponential growth phase were collected and inoculated.
Under sterile conditions, PC9 (De119/T790M/C797S) cell suspension cultured in vitro was taken, the cell concentration was adjusted to 5×10^7 cells /mL after centrifugation, and subcutaneously inoculated under the right armpit of mice (0.1 mL/ mouse). The day of inoculation was set as day 0.
a, When the average tumor volume was about 180 mm^3, 24 mice with moderate tumor volume were selected and randomly divided into 3 groups according to the tumor volume: G1: solvent control group, G2: compound 242 (25 mg/kg) and G3: compound 242 (75/50 mg/kg), 8 mice/group.
(§5) b, After animals were grouped, administration was started, and the administration volume was 10 mL/kg, administered orally (po); administered by weight once a day for 21 consecutive days; tumor diameter was measured twice a week.
(§6) c, Tumor volume (TV): the tumor volume was measured twice a week to observe the volume change and growth rate of the tumor. Tumor volume V=½×a×b^2, where a and b represent the long and short diameters of the tumor, respectively. The growth inhibition effect of the compounds on tumor tissue was evaluated by tumor growth inhibition rate TGI (%). […] The data of the administration group and the negative control group were taken on the same day.
(§7) d, During the experiment, the living conditions of the mice, including appearance signs, general behavior, mental state, food intake, respiratory state, feces and urine characteristics, local injection site and other toxicity manifestations, were closely observed.
(§8) e, After the experiment reached the end point, the mice were euthanized, and the animal carcasses were frozen in a freezer and handed over to a qualified medical waste disposal unit for disposal.

[6] = tested on: PC9 (De119/T790M/C797S) nude mice xenograft model; assay: In vivo efficacy research experiment B (compound 243); set-up: species or system BALB/c-nu mice; settings: for Tumor volume (mean ± standard error): PC9 (De119/T790M/C797S) xenograft
Experimental: To evaluate the antitumor activity and toxic side effects of compound 243 orally administered for 21 days in PC9 (De119/T790M/C797S) nude mice xenograft model.
as §2, §3, §4
Under sterile conditions, PC9 (De119/T790M/C797S) cell suspension cultured in vitro was taken, the cell concentration was adjusted to 3×10^7 cells/mL after centrifugation, and subcutaneously inoculated under the right armpit of mice (0.1 mL/ mouse). The day of inoculation was set as day 0.
a, When the average tumor volume was about 140 mm^3, 21 mice with moderate tumor volume were selected and randomly divided into […] according to the tumor volume: G1: solvent control group, G2: compound 243 (15 mg/kg) and G3: compound 243 (40 mg/kg), 7 mice/group.
as §5, §6, §7, §8

[7] = 25 mg/kg po once a day for 21 days
[8] = 75 (D1-D6), 50 (D7-D21) mg/kg po once a day
[9] = 15 mg/kg po once a day for 21 days
[10] = 40 mg/kg po once a day for 21 days

IC50 (wild-type EGFR) | GI50 [1] | IC50 [2] | IC50 [3] | GI50 [4] | Compound | further results
7.57 nM | 2.1 nM | 141 nM | 1.6 nM | 4.61 nM | COc1cc(N2CCC(C)(OC)CC2)c(-c2cnn(C)c2)cc1Nc1ncc(Cl)c(Nc2ccc3nccnc3c2P(C)(C)=O)n1 [compound 239] | –
29.9 nM | 8.2 nM | 304 nM | 0.51 nM | 19.2 nM | COc1cc(N2CCC(C)(OC)CC2)c(-c2cnn(C)c2)cc1Nc1ncc(Br)c(Nc2ccccc2P(C)(C)=O)n1 [compound 240] | –
30.1 nM | 2.92 nM | 182 nM | 0.13 nM | 12.3 nM | COc1cc(N2CCC(C)(OC)CC2)c(-c2c[nH]n(C)c2=O)cc1Nc1ncc(Br)c(Nc2ccc3nccnc3c2P(C)(C)=O)n1 [compound 241] | –
2.74 nM | 1.19 nM | 125 nM | 0.78 nM | 2.43 nM | COc1cc(N2CCC3(CCN(CC4(C#N)CC4)CC3)CC2)c(-c2cnn(C)c2)cc1Nc1ncc(Br)c(Nc2ccc3nccnc3c2P(C)(C)=O)n1 [compound 244, 1-((9-(4-((5-Bromo-4-((5-(dimethylphosphoryl)quinoxalin-6-yl)amino)pyrimidin-2-yl)amino)-5-methoxy-2-(1-methyl-1H-pyrazol-4-yl)phenyl)-3,9-diazaspiro[5.5]undecan-3-yl)methyl)cyclopropane-1-carbonitrile] | –
105 nM | 5.35 nM | 747 nM | 2.8 nM | 11.6 nM | COc1cc(N2CCC3(CCN(CC(F)(F)F)CC3)CC2)c(-c2cnn(C)c2)cc1Nc1ncc(Br)c(Nc2ccc3nccnc3c2P(C)(C)=O)n1 [compound 245] | –
1.05 nM | 2.59 nM | 128 nM | 0.4 nM | 3.64 nM | COc1cc(N2CCC3(CC2)CCN(C(C)CF)CC3)c(-c2cnn(C)c2)cc1Nc1ncc(Br)c(Nc2ccc3nccnc3c2P(C)(C)=O)n1 (centres unmarked) [compound 246] | –
5.81 nM | 3.76 nM | 66.4 nM | 0.12 nM | 7.76 nM | COc1cc(N2CC3CN(CCF)CC3C2)c(-c2cnn(C)c2)cc1Nc1ncc(Br)c(Nc2ccc3nccnc3c2P(C)(C)=O)n1 (centres unmarked) [compound 247, (6-((5-Bromo-2-((4-(5-(2-fluoroethyl)hexahydropyrrolo[3,4-c]pyrrol-2(1H)-yl)-2-methoxy-5-(1-methyl-1H-pyrazol-4-yl)phenyl)amino)pyrimidin-4-yl)amino)quinoxalin-5-yl)dimethylphosphine oxide] | –
1.91 nM | 1.17 nM | 84.7 nM | 0.29 nM | 2.37 nM | COc1cc(N2CCC3(CC2)CCN(C2COC2)CC3)c(-c2cnn(C)c2)cc1Nc1ncc(Br)c(Nc2ccc3nccnc3c2P(C)(C)=O)n1 [compound 248] | –
3.31 nM | 2.55 nM | 85 nM | 0.4 nM | 8.95 nM | COc1nc(N2CCC3(CCN(CCF)CC3)CC2)c(-c2cnn(C)c2)cc1Nc1ncc(Br)c(Nc2ccc3nccnc3c2P(C)(C)=O)n1 [compound 249] | –

Compound | IC50 (wild-type EGFR) | GI50 [1] | IC50 [2] | IC50 [3] | GI50 [4] | further results
COc1cc(N2CCC3(CCN(CC4(F)CC4)CC3)CC2)c(-c2cnn(C)c2)cc1Nc1ncc(Br)c(Nc2ccc3nccnc3c2P(C)(C)=O)n1 [compound 242, (6-((5-Bromo-2-((4-(9-((1-fluorocyclopropyl)methyl)-3,9-diazaspiro[5.5]undecan-3yl)-2-methoxy-5-(1-methyl-1H-pyrazol-4-yl)phenyl)amino)pyrimidin-4-yl)amino)quinoxalin-5-yl)dimethylphosphine oxide] | 2.4 nM | 1.36 nM | 75.7 nM | 0.4 nM | 3.07 nM | tolerability of mice ([5]; 25 mg/kg and 50 mg/kg doses): well tolerated; TGI (%) [5, 7]: 102%; Weight change (%) [5, 7]: 2.4%; Tumor volume (mm^3) [5, 7]: 139.8 ± 13.7** mm^3; tumor growth inhibition (in words) ([5]; 25, 75/50 mg/kg): significantly inhibit tumor growth; TGI (%) [5, 8]: 105%; Weight change (%) [5, 8]: −3.4%; Tumor volume (mm^3) [5, 8]: 64.0 ± 11.9** mm^3
COc1cc(N2CCC3(CC2)CCN(C(C)(C)CF)CC3)c(-c2cnn(C)c2)cc1Nc1ncc(Br)c(Nc2ccc3nccnc3c2P(C)(C)=O)n1 [compound 243, (6-((5-Bromo-2-((4-(9-(1-fluoro-2-methylpropan-2-yl)-3,9-diazaspiro[5.5]undecan-3-yl)-2-methoxy-5-(1-methyl-1H-pyrazol-4-yl)phenyl)amino)pyrimidin-4-yl)amino)quinoxalin-5-yl)dimethylphosphine oxide] | 4.91 nM | 1.73 nM | 141 nM | 0.54 nM | 3.95 nM | TGI [6, 9]: 81.4%; Weight change [6, 9]: −0.4%; Tumor volume (mean ± standard error) [6, 9]: 318.6 ± 38.63** mm^3; TGI [6, 10]: 110.1%; Weight change [6, 10]: −6.1%; Tumor volume (mean ± standard error) [6, 10]: 38.6 ± 5.19** mm^3; tolerability of mice ([6]; 15, 40 mg/kg): well tolerated; tumor growth inhibition (in words) ([6]; 15, 40 mg/kg po once a day for 21 days): significantly inhibit tumor growth
